Experimental data as given in patent US20140004223A1, “MOUTH-MOISTENING GUM COMPOSITIONS AND PRODUCTS CONTAINING THE SAME” (Three Parkway North, priority 2010, published 2014).

How the values were obtained:
[1] = water solubility; type: physicochemical
From the text: In some embodiments, one or more ingredients may be encapsulated with an encapsulating material can also modify the release profile of the ingredient.

[2] = taste testing of synthetic compound versus plant extracts; type: in vivo; conditions: based on taste testing, compared with some comparable plant extracts
From the text: Synthetic (2E,5Z,8E)-deca-2,6,8-trienoic acid N-isobutyl amide, being more pure than botanical sources, can be distinguished to some extent based on taste sensations. Synthetic (2E,5Z,8E)-deca-2,6,8-trienoic acid N-isobutyl amide can have a purity of at least about 90 percent. In some embodiments, synthetic (2E,5Z,8E)-deca-2,6,8-trienoic acid N-isobutyl amide can provide relatively higher mouth-moistening relative to tingling or heating/cooling sensations, compared to, for example, equivalent amounts of spilanthol in jambu. […] In one embodiment a combination of synthetic (2E,5Z,8E)-deca-2,6,8-trienoic acid N-isobutyl amide and a affinin plant extract is used. For example, within the given range of 75 to 300 ppm the affinin compound, the amount of affinin active provided by synthetic (2E,5Z,8E)-deca-2,6,8-trienoic acid N-isobutyl amide can vary from 20 to 80 wt. % and the amount of (2E,5Z,8E)-deca-2,6,8-trienoic acid N-isobutyl amide provided by plant extract of Heliopsis Longipes can vary from 80 to 20 wt. %.

C/C=C/C=C\CC/C=C/C(=O)NCC(C)C [affinin compound, (2E,5Z,8E)-deca-2,6,8-trienoic acid N-isobutyl amide]
water solubility [1]: not water soluble | taste profile / tingling [2]: a cleaner profile and/or less tingling
